# Assay results published in ChEMBL document CHEMBL5338706, “Discovery of a potent and selective proteolysis targeting chimera (PROTAC) degrader of NSD3 histone methyltransferase” (Eur J Med Chem, 2022).
# The source made the active and inactive calls. The calls are words filed in the database; no cut-off is given here.
# How the values were obtained:
# [1] = Downregulation of NSD3 level in human NCI-H520 cells at 3 uM by measuring fold change by Western blot analysis relative to control; assay type: functional
# [2] = system: NCI-H1703; assay: Downregulation of CDC25A in human NCI-H1703 cells at […] measured after 72 hrs by RNA sequencing assay; assay type: functional, cell-based; conditions: dose 7.5 µM
# [3] = system: NCI-H520; assay: Induction of apoptosis in human NCI-H520 cells assessed as decrease in Bcl-XL protein expression at 5 uM by measuring fold change by Western blot analysis relative to control; assay type: functional
# [4] = system: NCI-H1703; assay: Induction of apoptosis in human NCI-H1703 cells assessed as early apoptotic cells at 10 uM measured after 72 hrs by PI/Annexin-V staining based flow cytometry analysis (reference value: 1.47% ); assay type: functional
# [5] = system: NCI-H520; assay: Downregulation of CyclinD1 level in human NCI-H520 cells at 3 to […] by Western blot analysis; assay type: functional, cell-based; conditions: dose 3-7.5 µM
# [6] = Downregulation of c-Myc level in human NCI-H520 cells at 3 uM by measuring fold change by Western blot analysis relative to control; assay type: functional
# [7] = system: NCI-H1703; assay: Induction of apoptosis in human NCI-H1703 cells assessed as early apoptotic cells at […] measured after 72 hrs by PI/Annexin-V staining based flow cytometry analysis (reference value: 1.47% ); assay type: functional; conditions: dose 7.5 µM
# [8] = system: NCI-H520; assay: Induction of apoptosis in human NCI-H520 cells assessed as decrease in MCL-1 protein expression at […] by measuring fold change by Western blot analysis relative to control; assay type: functional; conditions: dose 7.5 µM
# [9] = target: T1, Histone-lysine N-methyltransferase NSD3 (Homo sapiens) (UniProt Q9BZ95); assay: Induction of NSD3 degradation in human NCI-H1703 cells at 3 uM incubated for 48 hrs in presence of MG132 by Western blot analysis; assay type: cell-based
# T1 sequence (whole entry): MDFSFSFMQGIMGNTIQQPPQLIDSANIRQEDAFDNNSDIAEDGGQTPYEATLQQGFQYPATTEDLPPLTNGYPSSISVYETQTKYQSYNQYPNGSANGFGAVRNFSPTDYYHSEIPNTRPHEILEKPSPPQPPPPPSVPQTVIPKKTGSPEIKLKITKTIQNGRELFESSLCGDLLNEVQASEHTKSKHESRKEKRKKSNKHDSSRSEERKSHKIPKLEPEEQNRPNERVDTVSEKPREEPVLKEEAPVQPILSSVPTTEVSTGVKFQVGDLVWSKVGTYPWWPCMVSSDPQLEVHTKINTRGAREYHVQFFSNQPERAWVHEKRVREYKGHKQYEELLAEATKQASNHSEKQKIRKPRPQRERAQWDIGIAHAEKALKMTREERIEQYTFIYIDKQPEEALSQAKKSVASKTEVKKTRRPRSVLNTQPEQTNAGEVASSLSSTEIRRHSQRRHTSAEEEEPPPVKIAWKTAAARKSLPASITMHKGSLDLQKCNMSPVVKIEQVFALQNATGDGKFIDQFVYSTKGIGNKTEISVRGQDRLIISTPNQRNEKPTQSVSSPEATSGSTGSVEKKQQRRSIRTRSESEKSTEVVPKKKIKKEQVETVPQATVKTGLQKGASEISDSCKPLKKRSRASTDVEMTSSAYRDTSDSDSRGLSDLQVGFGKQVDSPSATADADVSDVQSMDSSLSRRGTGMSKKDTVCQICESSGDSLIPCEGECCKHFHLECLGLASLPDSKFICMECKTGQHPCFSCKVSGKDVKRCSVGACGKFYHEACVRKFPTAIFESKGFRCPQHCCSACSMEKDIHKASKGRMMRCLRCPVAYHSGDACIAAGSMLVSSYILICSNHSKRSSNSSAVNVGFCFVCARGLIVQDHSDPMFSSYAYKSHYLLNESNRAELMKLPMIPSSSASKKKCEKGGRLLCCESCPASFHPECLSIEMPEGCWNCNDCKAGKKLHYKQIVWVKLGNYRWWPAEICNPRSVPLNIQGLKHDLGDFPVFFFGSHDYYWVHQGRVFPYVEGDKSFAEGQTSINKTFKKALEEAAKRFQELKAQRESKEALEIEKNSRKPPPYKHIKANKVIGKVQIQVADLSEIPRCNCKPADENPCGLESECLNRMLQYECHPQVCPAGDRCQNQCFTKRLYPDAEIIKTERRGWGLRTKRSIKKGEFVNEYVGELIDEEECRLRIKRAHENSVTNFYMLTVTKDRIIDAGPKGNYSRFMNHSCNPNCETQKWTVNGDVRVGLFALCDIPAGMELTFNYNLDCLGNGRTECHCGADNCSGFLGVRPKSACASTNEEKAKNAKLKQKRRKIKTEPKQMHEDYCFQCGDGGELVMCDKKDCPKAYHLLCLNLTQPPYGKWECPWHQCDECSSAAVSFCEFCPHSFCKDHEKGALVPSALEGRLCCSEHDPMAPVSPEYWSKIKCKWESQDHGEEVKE
compound,measurement,setting,value
Cc1cc(CNCCCCCCCCCCC(=O)N[C@H](C(=O)N2C[C@H](O)C[C@H]2C(=O)N[C@@H](C)c2ccc(-c3scnc3C)cc2)C(C)(C)C)cc(C)c1-c1ncn(C)c1-c1ccnc2cc(F)ccc12,fold change (FC),[1],0.67
same,Activity,[2],Active
same,fold change (FC),[3],1.1
same,Activity,[4],12.8%
same,Activity,[5],Active
same,fold change (FC),[6],1.03
same,Activity,[7],3.68%
same,fold change (FC),[8],0.61
same,Activity,[9],inactive
